For assay [1], the system named is BaF3 cells stably expressing ERBB3 mutants together with ERBB2. The experiment in a line: Colony formation assay (anchorage-independent growth), BaF3 cells. It is filed as cell-based, mouse. The method, then:
BaF3 cells stably expressing EGFR (2×10^5) or ERBB2 (50,000) along with ERBB3 wild-type or mutants, was mixed with 2 mls of IL3-free Methylcellulose ([…] Technologies, Canada) and plated on to 6 well plates and when indicated, cells were treated with different ERBB antibodies or tyrosine kinase or PI3K small molecule inhibitors before plating. Plates were then incubated at 37° C. for 2 weeks. For MCF10A colony formation, 20,000 MCF10A cells stably expressing ERBB3-WT or mutants alone or in combination with EGFR or ERBB2 were mixed with 0.35% agar in DMEM: F12 lacking serum, EGF, and NRG1 and plated on 0.5% base agar. Plates were then incubated at 37° C. for 3 weeks. The presence of colonies was assessed using Gel count imager (Oxford Optronix Ltd, UK). The number of colonies in each plate was quantified using Gel count software (Oxford Optronix Ltd, UK).

The test system is the same in assay [2]. The experiment in a line: Survival and proliferation assay, IL-3 independent BaF3 cells. It is filed as cell-based, mouse. The note with it: for blocking oncogenic signaling by ERBB3 mutants: summary statement. The method, then:
BaF3 cells stably expressing the wild-type and mutant ERBB3 alone or together with EGFR or ERBB2, were washed twice in PBS and plated in 3×96-well plates in replicates of eight in complete RPMI medium without IL3. As needed cells were then treated with different concentration of NRG1 and anti-NRG1 antibody or different ERBB antibodies, tyrosine kinase or PI3K small molecule inhibitors to test their effects on survival or cell proliferation, where relevant as depicted in the figures. Viable cells at 0 h and 120 h were determined using Cell Titer-Glo luminescence cell viability kit (Promega Corp., WI) and Synergy 2 (Biotek Instrument, CA) luminescence plate reader. All the cell number values were normalized against Oh values. In order to assess proliferation of MCF10A stably expressing ERBB3-WT or mutants were washed twice in PBS and 5000 cells plated in 96-well plates in replicates of eight in triplicates serum-free media and allowed to proliferate for 5 days. Cell numbers were measure at day 0 and day 5 using the luminescence cell viability kit. […] Mean and statistical significance was determined using GraphPad V software (GraphPad, CA).

[3] abbreviates: Q809R kinase domain ERBB3 mutant, at the tested dose.
[4] abbreviates: all the mutants tested except Q809R.
Where [5] appears, read: all the ERBB3 mutants tested, co-expressed with ERBB2, no IL-3.

“Also recorded” adds a separate entry of the source.

As for `CS(=O)(=O)N1CCN(Cc2cc3nc(-c4cccc5[nH]ncc45)nc(N4CCOCC4)c3s2)CC1` [GDC-0941], the blocking colony formation result was “very effective” in assay [1] (ERBB3 ECD mutants), “only partially effective; also recorded: only modestly effective” in assay [1] (setting [3]) and “effective” in assay [1] (setting [4]). For the same molecule, the blocking cell proliferation entry is listed as “very effective” in assay [2] (ERBB3 ECD mutants), “only partially effective; also recorded: only modestly effective” in assay [2] (setting [3]) and “effective” in assay [2] (setting [4]). Further, the “blocking oncogenic signaling by ERBB3 mutants” value is given as “quite active” in assay [2] (in vitro and in vivo, majority/most of the ERBB3 mutants tested); “not as effective; also recorded: reduced efficacy” in assay [2] (kinase domain mutant Q809R).
Regarding `CS(=O)(=O)CCNCc1ccc(-c2ccc3ncnc(Nc4ccc(OCc5cccc(F)c5)c(Cl)c4)c3c2)o1` [lapatinib], in assay [1] (setting [5]), the blocking colony formation entry is reported as “quite effective”. Further, in assay [2] (setting [5]), the blocking cell proliferation entry is “quite effective”.

B1: MEHD7945A: a dual ERBB3/EGFR antibody that blocks ligand binding (binds domain III of EGFR and ERBB3) (antibody, V domains shown)
VH: EVQLVESGGGLVQPGGSLRLSCAASGFTLSGDWIHWVRQAPGKGLEWVGEISAAGGYTDYADSVKGRFTISADTSKNTAYLQMNSLRAEDTAVYYCARESRVSFEAAMDYWGQGTLVTVSS
VL: DIQMTQSPSSLSASVGDRVTITCRASQNIATDVAWYQQKPGKAPKLLIYSASFLYSGVPSRFSGSGSGTDFTLTISSLQPEDFATYYCQQSEPEPYTFGQGTKVEIKR
Consider B1, for which the blocking colony formation result in assay [1] (setting [5]) is listed as “effective”.

These data come from US20130195870A1, “ERBB3 Mutations In Cancer” (Genentech, Inc., priority 2011, published 2013).
